Like-named read-outs stand apart in the source and are kept apart here.
Tests used:
[1] = tested on: Ang II induced [Ca^2+]i increase in murine mesangial cells (MMCs); assay: Ang II-mediated [Ca2+]i increase in MMCs; format: cell-based; conditions: Mus musculus, Mesangial cell
Protocol: Changes in [Ca^2+]i in MMCs were determined as described previously [Kim et al., Exp. Mol. Med. (2006)38:535-45]. Briefly, MMCs cultured on confocal dishes for 48 h at a concentration of 10^4 cells/dish were washed with Hank's balanced salt solution (HBSS) (2 mM CaCl2, 145 mM NaCl, 5 mM KCl, 1 mM MgCl2, 5 mM D-glucose, and 20 mM HEPES, pH 7.3) and then loaded with […] Fluo 3-AM (Molecular Probe, Eugene, Oreg.). Changes in Ca^2+ fluorescence were determined at 488 nm/530 nm (excitation/emission) by air-cooled argon laser system. [Ca^2+]i was calculated using a Kd of 325 nM for Fluo 3-AM by the method of Tsien et al. (1982).

[2] = tested on: Ang II induced cADPR production in murine mesangial cells (MMCs); assay: Ang II-induced intracellular cADPR concentration in MMCs; format: cell-based; conditions: for IC50: Mus musculus, Mesangial cell, cADPR production induced by 150 nM Ang II, 90 s, MMCs, read-out: IC50([CADPR]i, uM) (means ± SEM)
Protocol: [cADPR]i was measured using a cyclic enzymatic assay as described previously [Graeff et al., Biochem. J. (2002)361:379-84]. Aplysia californica ADPR-cyclase was purified from […] according to the method described [Lee et al., Cell Regul. (1991)2:203-9]. Briefly, MMCs were treated with 0.3 ml of 0.6 M perchloric acid under sonication after Ang II treatment. Precipitates were removed by centrifugation at 20,000×g for 10 min. Perchloric acid was removed by mixing the aqueous sample with a solution containing 3 volumes of 1,1,2-trichlorotrifluoroethane to 1 volume of tri-n-octlyamine. After centrifugation for 10 min at 1500×g, the aqueous layer was collected and neutralized with 20 mM sodium phosphate (pH 8). To remove all contaminating nucleotides, the samples were incubated with the following hydrolytic enzymes overnight at 37° C.: 0.44 unit/ml nucleotide pyrophosphatase, 12.5 units/ml alkaline phosphatase, 0.0625 unit/ml NADase, and 2.5 mM MgCl2 in 20 mM sodium phosphate buffer (pH 8.0). Enzymes were removed by filtration using Centricon-3 filters. To convert cADPR to NAD^+, the samples (0.1 ml/tube) were incubated with […] of a cycling reagent containing 0.3 mg/ml Aplysia ADPR-cyclase, 30 mM nicotinamide, and 100 mM sodium phosphate (pH 8) at room temperature for 30 min. The samples were further incubated with the cycling reagent (0.1 ml) containing 2% ethanol, […] alcohol dehydrogenase, 20 mM resazurin, 10 mg/ml diaphorase, 10 mM riboflavin 5′-phosphate, 10 mM nicotinamide, 0.1 mg/ml BSA, and 100 mM sodium phosphate (pH 8.0) for 2 h at room temperature. An increase in the resorufin fluorescence was measured at 544 nm excitation and 590 nm emission using a fluorescence plate reader (Molecular Devices Corp., Spectra-Max GEMINI). Various known concentrations of cADPR were also included in the cycling reaction to generate a standard curve. […] Production of cADPR as well as later sustained Ca^2+ signal in response to Ang II was inhibited with different efficacy by these small molecules (Table 1). […] The order of IC50 was 4,4′-DAHB>resveratrol>azobenzene=piceatannol>2,2′-DAHB.

[3] = tested on: 2 kidney 1 clip hypertensive rat model; assay: Systolic blood pressure in 2 kidney 1 clip hypertensive rat model; format: in vivo, Sprague-Dawley male rats; conditions: intraperitoneal 428 μg/200 g/d, from day 7 after surgery for 7 weeks, tail plethysmography
Protocol: Renovascular hypertension was produced by 2KlC Sprague-Dawley male rats (7-9 weeks old) weighing 200 to 220-g were anesthetized with ketamine (100 mg/kg, intra-peritoneally) and rumpen (5 mg/kg, intraperitoneally). The left kidney was exposed through the median abdominal incision, and the renal artery was separated from the renal vein with caution. Then, a silver clip with 0.15 mm slit was placed around the renal artery. The sham procedure was performed, including the entire surgery with the exception of arterial clipping. To examine the effect of 2,2′-DHAB in the 2KlC model, we administered it at days 7 after the surgery for 7 weeks. 2,2′-DHAB was injected intraperitoneally with 58% DMSO plus saline at a dose of 1.5 μl/g body weight (428 μg/200 g/d). Sham group and control 2KlC received DMSO plus saline treatment. The dose of injected DMSO had no side effect on blood pressure (BP) or any other parameters. Systolic blood pressure was measured by a method using tail plethysmography in conscious rats once a week, from the day prior to surgery until the day of sacrifice.

[4] = tested on: OKT3 induced cADPR production in Jurkat T cells; assay: OKT3-induced [cADPR]i in Jurkat T cells; format: cell-based; conditions: pretreatment
Protocol: [cADPR]i was measured using a cyclic enzymatic assay as described previously [Graeff et al., Biochem. J. (2002)361:379-84]. Aplysia californica ADPR-cyclase was purified from […] according to the method described [Lee et al., Cell Regul. (1991)2:203-9]. Briefly, MMCs were treated with 0.3 ml of 0.6 M perchloric acid under sonication after Ang II treatment. Precipitates were removed by centrifugation at 20,000×g for 10 min. […] After centrifugation for 10 min at 1500×g, the aqueous layer was collected and neutralized with 20 mM sodium phosphate (pH 8). To remove all contaminating nucleotides, the samples were incubated with the following hydrolytic enzymes overnight at 37° C.: 0.44 unit/ml nucleotide pyrophosphatase, 12.5 units/ml alkaline phosphatase, 0.0625 unit/ml NADase, and 2.5 mM MgCl2 in 20 mM sodium phosphate buffer (pH 8.0). Enzymes were removed by filtration using Centricon-3 filters. […] An increase in the resorufin fluorescence was measured at 544 nm excitation and 590 nm emission using a fluorescence plate reader (Molecular Devices Corp., Spectra-Max GEMINI). […] Measurement of [cADPR]i in Jurkat T cells were determined as described above examples 5.

[5] = tested on: OKT3 induced [Ca^2+]i increase in Jurkat T cells; assay: OKT3-mediated [Ca2+]i increase in Jurkat T cells; format: cell-based; conditions: pretreatment, even at 10 mM; OKT3 5 mg/ml
Protocol: Changes in [Ca^2+]i in Jurkat T cells were determined as described above examples 1.

[6] = later sustained Ca2+ signal induced by 150 nM Ang II, 300 s, read-out: IC50([Ca^2+]i, uM) (means ± SEM)

Structure (SMILES)	IC50 [1, 6] [µM]	IC50 [2] [µM]	effect on elevation of systolic blood pressure [3]	effect on OKT3-mediated [cADPR]i [4]	effect on OKT3-mediated Ca2+ rise [5]	IC50 ([1]; Ang II, pretreatment, read-out: IC50 for block of the sustained Ca2+ signal) [µM]	concentration at which cADPR production stimulated by Ang II is inhibited ([2]; MMC) [nM]
Oc1ccccc1/N=N/c1ccccc1O [2,2′-DHAB, 2,2′-Dihydroxyazobenzene]	15 ± 1.5	16.5 ± 2.5	prevented the elevation of blood pressure	didn't inhibited	did not show any effects		
Oc1ccc(N=Nc2ccc(O)cc2)cc1 [4,4′-DHAB, 4,4′-Dihydroxyazobenzene]	0.0025 ± 0.0002	0.0025 ± 0.0003		didn't inhibited	did not show any effects	~0.0025	5

Reference: patent US8314082B2, “Stilbene derivatives for ADP-ribosyl cyclase inhibitors” (Industrial Cooperation Foundation Chonbuk National …, priority 2006, dated 2012)
